Patent US20230203081A1, “LINCOSAMIDE ANTIBIOTICS AND USES THEREOF” (President and Fellows of Harvard College, priority 2020, published 2023)
≈ marks a conversion by molar mass, not a printed value. Where two headings read alike, the source gives them in different places.

Legend:
Type in all cases: cell-based
S. aureus ATCC 29213 = test: MIC (broth microdilution or agar dilution, CLSI)
Description: (§1) Minimum inhibitory concentrations (MICs) were determined by broth microdilution method or agar dilution method following the Clinical and Laboratory Standards Institute guidelines. Standard bacterial strains were obtained from American Type Culture Collection (ATCC). Other bacterial strains were obtained from hospitals and commercial sources, so noted in Table 11. […] Specialized procedures were employed for streptococcal and anaerobic strains. All other bacterial strains were sub-cultured on blood agar plates (tryptic soy agar with 5% sheep blood, Hardy Diagnostics) and incubated overnight at 35° C. […] Suspensions were further diluted to obtain a final inoculum of 5×10^5 CFU/mL for broth microdilution experiments.

E. coli LptD = test: MIC (broth microdilution or agar dilution, CLSI)
Description: as §1

K. oxytoca Clinical = test: MIC (broth microdilution or agar dilution, CLSI)
Description: as §1

[1] = test system: S. aureus ATCC BAA-1707 (MRSA); test: MIC (broth microdilution or agar dilution, CLSI); settings: Staphylococcus aureus; S. aureus HAV#016, ATCC BAA-1707; MRSA; read-out: MIC
Description: as §1

S. pneumoniae ATCC 49619 = test: MIC (broth microdilution or agar dilution, CLSI)
Description: as §1

S. aureus MMX 3035 cErmA = test: MIC (broth microdilution or agar dilution, CLSI); settings: Staphylococcus aureus, MMX3035CERMA; S. aureus HAV#031, MMX 3035; cErmA; read-out: MIC
Description: as §1

H. influenzae ATCC 49247 = test: MIC (broth microdilution or agar dilution, CLSI); settings: Haemophilus influenzae, ATCC49247; H. influenzae HAV#007, ATCC 49247; read-out: MIC
Description: as §1

S. pneumoniae ATCC 6303 = test: MIC (broth microdilution or agar dilution, CLSI); settings: Streptococcus pneumoniae, ATCC6303; S. pneumoniae HAV#351, ATCC 6303; read-out: MIC
Description: as §1

E. coli ATCC 25922 = test: MIC (broth microdilution or agar dilution, CLSI)
Description: as §1

[2] = test system: S. pneumoniae MMX 3031 cMefA; test: MIC (broth microdilution or agar dilution, CLSI); settings: Streptococcus pneumoniae, MMX3031CMEFA, S. pneumoniae HAV#034; MMX 3031, cMefA; read-out: MIC
Description: as §1

S. pyogenes ATCC 19615 = test: MIC (broth microdilution or agar dilution, CLSI)
Description: as §1

E. faecalis ATCC 29212 = test: MIC (broth microdilution or agar dilution, CLSI)
Description: as §1

[3] = test system: E. faecalis MMX 847; cErmB; test: MIC (broth microdilution or agar dilution, CLSI); settings: Enterococcus faecalis; E. faecalis HAV#036, MMX 847; mac-resistant, cErmB; read-out: MIC
Description: as §1

[4] = test system: S. pneumoniae MMX 3028 cErmB; test: MIC (broth microdilution or agar dilution, CLSI); settings: Streptococcus pneumoniae, MMX3028CERMB; S. pneumoniae HAV#033; MMX 3028, cErmB; read-out: MIC
Description: as §1

K. pneumoniae ATCC 10031 = test: MIC (broth microdilution or agar dilution, CLSI); settings: Klebsiella pneumoniae, ATCC10031, K. pneumoniae HAV#008, ATCC 10031; read-out: MIC
Description: as §1

A. baumannii ATCC 19606 = test: MIC (broth microdilution or agar dilution, CLSI)
Description: as §1

[5] = test system: S. pyogenes MMX 946; cErmB; test: MIC (broth microdilution or agar dilution, CLSI); settings: Streptococcus pyogenes; S. pyogenes HAV#035, MMX 946; cErmB, mac-resistant; read-out: MIC
Description: as §1

S. aureus hVISA = test: MIC (broth microdilution or agar dilution, CLSI); settings: Staphylococcus aureus; S. aureus HAV#204, hVISA; read-out: MIC
Description: as §1

S. aureus BAA 977 iErmA = test: microbe, parasite or virus in culture; settings: Staphylococcus aureus, BAA-977 / MRSA
Description: as §1

E. coli armA = test: microbe, parasite or virus in culture; settings: Escherichia coli, E. coli HAV#056; Clinical, armA
Description: as §1

S. aureus MP-549 msrA = test: microbe, parasite or virus in culture; settings: Staphylococcus aureus, MP549MSRA; S. aureus HAV#032, MP-549; MSR(A)
Description: as §1

[6] = test system: broad panel of different clinical isolates; test: microbe, parasite or virus in culture
Description: as §1

E. coli ΔTolC = test: microbe, parasite or virus in culture
Description: as §1

S. aureus cErmA = test: MIC (broth microdilution or agar dilution, CLSI); settings: S. aureus cErmA
Description: (§2) Minimum inhibitory concentrations (MICs) were determined by broth microdilution method or agar dilution method following the Clinical and Laboratory Standards Institute guidelines. Standard bacterial strains were obtained from American Type Culture Collection (ATCC). Other bacterial strains were obtained from hospitals and commercial sources, so noted in Table 11. Before the start of the MIC experiment, standard and test compound stock solutions were prepared in dimethyl sulfoxide (DMSO, Aldrich D2650) at a stock concentration of 5,120 μg/mL. The compound concentration range typically employed for each experiment was 128-0.06 μg/mL (2.5% final DMSO concentration). Clindamycin was used as a comparator in all experiments and each experiment was performed in triplicate. Specialized procedures were employed for streptococcal and anaerobic strains. All other bacterial strains were sub-cultured on blood agar plates (tryptic soy agar with 5% sheep blood, Hardy Diagnostics) and incubated overnight at 35° C. Organisms were suspended in cation-adjusted Mueller-Hinton broth (CaMHB, BD 212322) and optical density was adjusted to 0.5 McFarland standard. Suspensions were further diluted to obtain a final inoculum of 5×10^5 CFU/mL for broth microdilution experiments.

E. faecium Clinical VRE = test: MIC (broth microdilution or agar dilution, CLSI); settings: E. faecium Clinical VRE
Description: as §2

P. aeruginosa ATCC 27853 = test: MIC (broth microdilution or agar dilution, CLSI); settings: P. aeruginosa ATCC 27853
Description: as §2

CC[C@H]1OC(=O)[C@H](C)[C@@H](O[C@H]2C[C@@](C)(OC)[C@@H](O)[C@H](C)O2)[C@H](C)[C@@H](O[C@@H]2O[C@H](C)C[C@H](N(C)C)[C@H]2O)[C@](C)(O)C[C@@H](C)C(=O)[C@H](C)[C@@H](O)[C@]1(C)O [Erythromycin]
MIC (S. aureus ATCC 29213; Staphylococcus aureus, ATCC29213, S. aureus HAV#001, ATCC 29213, MP-549, read-out: MIC): 0.5 µg/mL (≈ 0.681 µM)
MIC (E. coli LptD; Escherichia coli, E. coli HAV#040, LptD, read-out: MIC): 1 µg/mL (≈ 1.36 µM)
MIC (K. oxytoca Clinical; Klebsiella oxytoca, K. oxytoca HAV#450, Clinical, read-out: MIC): > 64 µg/mL
MIC [1]: 0.5 µg/mL (≈ 0.681 µM)
MIC (S. pneumoniae ATCC 49619; Streptococcus pneumoniae, ATCC49619, S. pneumoniae HAV#003, ATCC 49619, read-out: MIC): ≤ 0.06 µg/mL
MIC (S. aureus MMX 3035 cErmA): > 64 µg/mL
MIC (H. influenzae ATCC 49247): 8 µg/mL (≈ 10.9 µM)
MIC (S. pneumoniae ATCC 6303): 0.5 µg/mL (≈ 0.681 µM)
MIC (E. coli ATCC 25922; Escherichia coli, ATCC25922, E. coli HAV#006, ATCC 25922, read-out: MIC): 64 µg/mL (≈ 87.2 µM)
MIC [2]: 8 µg/mL (≈ 10.9 µM)
MIC (S. pyogenes ATCC 19615; Streptococcus pyogenes, ATCC19615, S. pyogenes HAV#004, ATCC 19615, read-out: MIC): < 0.06 µg/mL
MIC (E. faecalis ATCC 29212; Enterococcus faecalis, ATCC29212, E. faecalis HAV#005, ATCC 29212, read-out: MIC): 2 µg/mL (≈ 2.73 µM)
MIC [3]: > 64 µg/mL
MIC [4]: > 64 µg/mL
MIC (K. pneumoniae ATCC 10031): 8 µg/mL (≈ 10.9 µM)
MIC (A. baumannii ATCC 19606; Acinetobacter baumannii, ATCC19606, A. baumanii HAV#010, ATCC 19606, read-out: MIC): 64 µg/mL (≈ 87.2 µM)
MIC [5]: > 64 µg/mL
MIC (S. aureus hVISA): > 64 µg/mL
MIC (S. aureus BAA 977 iErmA): > 64 µg/mL
MIC (E. coli armA): 32 µg/mL (≈ 43.6 µM)
MIC (S. aureus MP-549 msrA): 64 µg/mL (≈ 87.2 µM)
MIC ([6]; Enterococcus faecalis, VRE, E. faecalis HAV#251, Clinical VRE): > 64 µg/mL
MIC ([6]; Escherichia coli, E. coli HAV#501, Clinical): > 64 µg/mL
MIC ([6]; Klebsiella pneumoniae, K. pneumoniae HAV#041, Clinical, KPC): > 64 µg/mL
MIC ([6]; Staphylococcus aureus, MRSA, S. aureus HAV#017, MRSA Col(Colindale, England)): 0.5 µg/mL (≈ 0.681 µM)
MIC ([6]; Staphylococcus aureus, S. aureus HAV#216, Clinical, cfr): 32 µg/mL (≈ 43.6 µM)
MIC ([6]; Staphylococcus aureus, S. aureus HAV#217, cfr): 64 µg/mL (≈ 87.2 µM)
MIC ([6]; Staphylococcus aureus, VISA, S. aureus HAV#203, Clinical (VISA)): > 64 µg/mL
MIC ([6]; Staphylococcus epidermidis, S. epidermidis HAV# 275 Clinical, cfr): 8 µg/mL (≈ 10.9 µM)
MIC ([6]; Staphylococcus epidermidis, S. epidermidis HAV# 276, cfr): > 128 µg/mL
MIC (E. coli ΔTolC; Escherichia coli, E. coli HAV#038, ΔTolC): 4 µg/mL (≈ 5.45 µM)

CSC1O[C@H]([C@H](NC(=O)[C@H]2NC[C@@H]3C[C@H](CC(F)F)CCO[C@H]32)[C@H](C)Cl)C(O)[C@@H](O)[C@H]1O (stereo partly shown) [FSA-10-09-093]
MIC (S. aureus ATCC 29213; S. aureus ATCC 29213): 0.25 µg/mL (≈ 0.497 µM)
MIC (E. coli LptD; E. coli LptD): 4 µg/mL (≈ 7.95 µM)
MIC (K. oxytoca Clinical; K. oxytoca Clinical): 16 µg/mL (≈ 31.8 µM)
MIC (S. pneumoniae ATCC 49619; S. pneumoniae ATCC 49619): 0.5 µg/mL (≈ 0.994 µM)
MIC (E. coli ATCC 25922; E. coli ATCC 25922): 16 µg/mL (≈ 31.8 µM)
MIC (S. pyogenes ATCC 19615; S. pyogenes ATCC 19615): 0.5 µg/mL (≈ 0.994 µM)
MIC (E. faecalis ATCC 29212; E. faecalis ATCC 29212): 0.25 µg/mL (≈ 0.497 µM)
MIC (A. baumannii ATCC 19606; A. baumannii ATCC 19606): 128 µg/mL (≈ 254 µM)
MIC (S. aureus cErmA): 32 µg/mL (≈ 63.6 µM)
MIC (E. faecium Clinical VRE): 8 µg/mL (≈ 15.9 µM)
MIC (P. aeruginosa ATCC 27853): >128 µg/mL
MIC (E. coli ΔTolC; E. coli ΔTolC): 1 µg/mL (≈ 1.99 µM)
